Where two headings read alike, the source gives them in different places.
What was measured:
[1] = system: human subjects with OHT/POAG; assay: Phase 1b trial: conjunctival hyperemia, safety and tolerability; assay type: in vivo
Method: A randomized, double-masked Phase 1b trial was designed to assess safety, tolerability, and efficacy of a Tie-2 activator (Compound 1) as an adjunctive therapy to prostaglandins for treatment of ocular hypertension (OHT) or primary open angle glaucoma (POAG). The study assessed the effects of increasing concentrations of Compound 1 dosed topically as eye drops (5 mg/mL QD, 15 mg/mL QD, 40 mg/mL QD, and 40 mg/mL BID) in 4 sequential cohorts of 12 subjects, randomized 3:1 to receive Compound 1 or placebo, for 7 days. Conjunctival hyperemia and IOP were assessed at 0 (pre-dose), 2 hours, 4 hours, and 8 hours post-dose on Day −1 (baseline), Day 1 (first day of Compound 1 dosing), and Day 7 (last day of dosing).
In this study, 36 human subjects with OHT/POAG and baseline IOP measurements between 17 and 27 mmHg (inclusive) undergoing once-daily prostaglandin therapy were recruited. Subjects were randomized 3:1 to once-daily, 40 mg/mL Compound 1 (27 subjects), or placebo (9 subjects) in the morning (AM) for 7 days while continuing once-daily prostaglandin therapy in the evening (PM). Compound 1 (40 mg/mL) was a sodium salt formulated in 15% HPβCD and 1% mannitol. The Compound 1 ophthalmic solution was adjusted to a pH of 6.5-7.5 with 1N hydrochloric acid and/or IN sodium hydroxide prior to sterile filtration. Placebo was the same solution as the vehicle for the Compound 1 ophthalmic solution. Each dose of study medication (Compound 1 or placebo) was administered as one drop (30 μL) of dosing solution per eye in each subject. Compound 1 was administered to each eye (except on Day 1 and 2 in Cohort 1 in which only the right eye received Compound 1) by the topical ocular route using a dropper bottle to deliver eye drops. Compound 1 was administered for 7 days as a single morning dose daily. […]
IOP was measured pre-dose (0 hr), 2 hrs, 4 hrs, and 8 hrs post-dose on Day −1, Day 1, and Day 7. […] Visual field testing, conjunctival hyperemia and IOP were also assessed. IOP was assessed by Goldmann applanation tonometry in both eyes at screening, baseline, and during treatment as indicated. […]

[2] = system: patients with mean baseline intraocular pressure of 24-25 mmHg; conditions: cited from earlier work
[3] = cited from earlier work

SMILES: COC(=O)N[C@@H](Cc1ccccc1)C(=O)N[C@@H](Cc1ccc(NS(=O)(=O)O)cc1)c1csc(-c2cccs2)n1 [Compound 1]
- change in hyperemia over baseline ([1]; 2 hours post-dose): small increase
- tolerability of topical ocular administration ([1]; 7 day study): well-tolerated
- time by which hyperemia returned to baseline levels ([1]; post-dose): ≤ 8 h

SMILES: CC(C)OC(=O)CCC/C=C\C[C@@H]1[C@@H](CC[C@@H](O)CCc2ccccc2)[C@H](O)C[C@@H]1O [Latanoprost, latanoprost]
- reductions in IOP ([2]; baseline IOP 24-25 mmHg, treated for 6 months, multi-center randomized controlled trials): 6-8 mmHg
- start of reduction of the intraocular pressure after administration ([2]; human, in vivo): 3 to 4 h
- time at which the maximum effect is reached ([2]; human, in vivo): 8 to 12 h
- distribution volume ([3]; humans): 0.16 ± 0.02 L/kg
- administered dose recovered in the urine ([3]; intravenous dosing): ~98%
- administered dose recovered in the urine ([3]; topical dosing): about 88%

SMILES: O=C(O)CCC/C=C\C[C@@H]1[C@@H](CC[C@@H](O)CCc2ccccc2)[C@H](O)C[C@@H]1O [acid of latanoprost]
- t1/2, elimination from human plasma ([3]; after both intravenous and topical administration): 17 min
- Systemic clearance ([3]; human): approximately 7 mL/min/kg

Source: US20210212998A1, “Combinations of Tie-2 Activators and Prostaglandins and Uses Thereof” (Aerpio Pharmaceuticals, Inc., priority 2020, published 2021)
